In patent publication US20090131539A1 (priority 2005, published 2009):

Test system: Varroa mites
Assay: Test set-up 2004: honeybee colonies infested with Varroa mites, count of mites fallen down in the hive
Type: in vivo, Varroa destructor or Varroa jacobsoni
Description: For the test set-up 2004 two bee colonies (A and B) were chosen, which were not used for honey production because of the medium applied for subsequent evaluation of residues and also because colony B was a swarming colony. Each colony consisted of approx. 25,000 animals. Both colonies were housed each in two so-called ‘Herold’ or ‘Zeitler’ hives with 10 frames. Their infestation, colony size, brood and general state was examined and approved.
In the beginning only hive A was treated with the mixture, hive B remained untreated in order to gain reference data. Over a period of 3½ months seven treatments took place with a longer break period of more than 30 days between two treatment cycles. At the end, two treatments with Perizin® were carried out in order to check on remaining mite infestation.
Approx. […] The hive was opened and from the top the medium was finely distributed with the lance at 5 cm intervals into the spaces between the frames. First the lower than immediately the upper frame was treated.
Before the hive was covered again two minutes were allowed for aeration. The time needed for treatment of each hive was one to two minutes (without aeration).
In order to ascertain the amount of mites fallen down in the hive the floor boards of both hives (A and B) were lined entirely with two ‘diapers’ and covered with Vaseline coated paper. This was done in order to make sure that mites which might have been still alive were prevented from running away. This process was repeated after every mite count.
The colonies C to L represented reference colonies and served to ascertain the Varroa density at the location (those hives were only lined with diapers). As those were predominantly migrating colonies they were not available throughout the whole duration of the treatment, but they still represent the general situation.
Especially as many apiarists relocate their hives there is always infestation with Varroa in spite of preventive measures taken. When recording the mites found amounts of 50 animals were counted exactly.
The course of the test is outlined here in note form: […]

With `O=CO` [formic acid] the “count of mites fallen down in the hive” value (reference colony C, check-up 6 Sep. 2004, after formic acid (60%) evaporation of 30 Aug., amounts above 50 partially counted and extrapolated) was 1.200, the “count of mites fallen down in the hive” value (reference colony C, check-up 20 Sep. 2004, after second formic acid treatment of 6 Sep.) was 160 and the “count of mites fallen down in the hive” value (reference colony D, check-up 6 Sep. 2004, after formic acid (60%) evaporation of 30 Aug., amounts above 50 partially counted and extrapolated) was 600. For the same compound, the “count of mites fallen down in the hive” value (reference colony D, check-up 20 Sep. 2004, after second formic acid treatment of 6 Sep.) was 40, the “count of mites fallen down in the hive” value (reference colony E, check-up 6 Sep. 2004, after formic acid (60%) evaporation of 30 Aug., amounts above 50 partially counted and extrapolated) was 400 and the “count of mites fallen down in the hive” value (reference colony E, check-up 20 Sep. 2004, after second formic acid treatment of 6 Sep.) was 50. The “count of mites fallen down in the hive” value (reference colony F, check-up 6 Sep. 2004, after formic acid (60%) evaporation of 30 Aug.) was 50, the “count of mites fallen down in the hive” value (reference colony F, check-up 20 Sep. 2004, after second formic acid treatment of 6 Sep.) was 10 and the “count of mites fallen down in the hive” value (reference colony G, check-up 6 Sep. 2004, after formic acid (60%) evaporation of 30 Aug., amounts above 50 partially counted and extrapolated) was 400. The “count of mites fallen down in the hive” value (reference colony G, check-up 20 Sep. 2004, after second formic acid treatment of 6 Sep.) was 100, the “count of mites fallen down in the hive” value (reference colony H, check-up 6 Sep. 2004, after formic acid (60%) evaporation of 30 Aug., amounts above 50 partially counted and extrapolated) was 500 and the “count of mites fallen down in the hive” value (reference colony H, check-up 20 Sep. 2004, after second formic acid treatment of 6 Sep.) was 240. The “count of mites fallen down in the hive” value (reference colony I, check-up 6 Sep. 2004, after formic acid (60%) evaporation of 30 Aug.) was 50, the “count of mites fallen down in the hive” value (reference colony I, check-up 20 Sep. 2004, after second formic acid treatment of 6 Sep.) was 38 and the “count of mites fallen down in the hive” value (reference colony J, check-up 6 Sep. 2004, after formic acid (60%) evaporation of 30 Aug., amounts above 50 partially counted and extrapolated) was 200. For the same compound, the “count of mites fallen down in the hive” value (reference colony J, check-up 20 Sep. 2004, after second formic acid treatment of 6 Sep.) was 44, the “count of mites fallen down in the hive” value (reference colony K, check-up 6 Sep. 2004, after formic acid (60%) evaporation of 30 Aug., amounts above 50 partially counted and extrapolated) was 200 and the “count of mites fallen down in the hive” value (reference colony K, check-up 20 Sep. 2004, after second formic acid treatment of 6 Sep.) was 60. The “count of mites fallen down in the hive” value (reference colony L, check-up 6 Sep. 2004, after formic acid (60%) evaporation of 30 Aug., amounts above 50 partially counted and extrapolated) was 200 and the “count of mites fallen down in the hive” value (reference colony L, check-up 20 Sep. 2004, after second formic acid treatment of 6 Sep.) was 100.
